The values below come from patent publication US9365572B2, “PI3K and/or mTOR inhibitor” (XUANZHU PHARMA CO., LTD., priority 2012, dated 2016).

In one assay the target is Prostanoid EP4 (Homo sapiens (Human), UniProt P35408). Briefly: Radioligand binding assay No. 268420. The settings on record: test substance 10 μM, read-out: Inhibitory rate (%), Prostanoid EP4.
Assay [1] has as its target Leukotriene, Cysteinyl CysLT1 (Homo sapiens (Human), UniProt Q9Y271). The assay can be described thus: Radioligand binding assay No. 250460. The settings on record: test substance 10 μM, read-out: Inhibitory rate (%), Leukotriene, Cysteinyl CysLT1.
The target in assay [2] is Serotonin (5-Hydroxytryptamine) 5-HT1A (Homo sapiens (Human), UniProt P08908). The assay can be described thus: Radioligand binding assay No. 271110. As to conditions: test substance 10 μM, read-out: Inhibitory rate (%), Serotonin (5-Hydroxytryptamine) 5-HT1A.
Serotonin (5-Hydroxytryptamine) 5-HT1A, sequence (P08908 whole entry): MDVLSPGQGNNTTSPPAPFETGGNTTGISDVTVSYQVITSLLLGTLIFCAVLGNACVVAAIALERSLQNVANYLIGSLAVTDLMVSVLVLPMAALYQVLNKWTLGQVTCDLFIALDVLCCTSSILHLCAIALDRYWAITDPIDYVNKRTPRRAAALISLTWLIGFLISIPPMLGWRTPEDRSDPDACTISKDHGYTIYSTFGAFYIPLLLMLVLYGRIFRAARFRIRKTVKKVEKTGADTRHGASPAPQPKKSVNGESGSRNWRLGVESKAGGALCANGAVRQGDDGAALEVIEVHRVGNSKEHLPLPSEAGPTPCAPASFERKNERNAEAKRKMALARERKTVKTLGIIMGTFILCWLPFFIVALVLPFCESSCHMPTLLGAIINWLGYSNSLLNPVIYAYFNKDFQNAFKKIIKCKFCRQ
For a further assay, the target named is mTOR (Homo sapiens (Human), UniProt P42345). The assay can be described thus: mTOR enzymatic assay. Format: biochemical. As to conditions: read-out: In vitro enzymatic activity (IC50) mTOR. As to the method:
(§1) Assay 1-2: In Vitro Enzymatic Inhibitory Activity of the Present Compound
1. Preparation of Agents:
(§2) • 1.1 1-fold kinase buffer: 50 mM HEPES, pH 7.5, 10 mM MgCl2, 1 mM EGTA, 3 mM MnCl2, 0.01% Tween-20, 2 mM DTT; • 1.2 4-fold kinase solution: mTOR kinase was added to 1-fold kinase buffer to form 4-fold kinase solution with a final concentration of 2.5 nM; • 1.3 2-fold substrate and ATP solution: the substrate 4EBP1 and ATP were added to 1-fold kinase buffer to form 2-fold substrate solution with final concentration of 50 nM of 4EBP1 and 10.8 μM of ATP; • 1.4 4-fold test substance solutions: 100-fold test substance solutions in different gradient concentrations were formulated with 100% DMSO, and diluted by 25 folds with 1-fold kinase buffer to form 4-fold test substance solutions in different gradient concentrations. • 1.5 Preparation of detection solution: a detection solution containing 2-fold final concentrations of EDTA and 4EBP1 phosphorylated antibody was formulated, wherein the final concentration for EDTA was 8 mM, and the final concentration for the 4EBP phosphorylated antibody was 2 nM. 2. Procedure • 2.1 To each well of a 384-well plate was added 2.5 μL of the 4-fold test substance solutions in gradient concentrations. The replication was made. • 2.2 To each well was added 2.5 μL of 4-fold kinase solution, and then the plate was incubated for 10 mins; • 2.3 Then to each well was added 5 μL/of 2-fold substrate and ATP solution, and then the plate was incubated at room temperature for 1 hour; • 2.4 Finally, 10 μL of the detection solution was added to terminate the reaction. After 60 mins, the data Lance signal ([…]) was read from Envision. 3 Data treatment Inhibition rate (%)=[…] • wherein: • maximum refers to the reading at the DMSO control well. • minimum refers to the reading at the control well without kinase, • The data was input into Graphpad Prism 5.0 to plot and obtain the curve and IC50 value. PI3Kα Enzymatic Assay 1. […] After 15 mins, the data Lance signal ([…]) was read from Envision. 3 Data treatment Inhibition rate (%)=100−(sample value−minimum)/(maximum−minimum)×100 • wherein: • maximum refers to the reading at the control well without kinase, • minimum refers to the reading at the DMSO control well, • The data was input into Graphpad Prism 5.0 to plot and obtain the curve and IC50 value. […]

The target in a further assay is PI3Kα (Homo sapiens (Human), UniProt P42336). The assay can be described thus: PI3Kα enzymatic assay. Format: biochemical. The settings on record: read-out: In vitro enzymatic activity (IC50) PI3Kα. As to the method: as §1, §2
PI3Kα, sequence (P42336 whole entry): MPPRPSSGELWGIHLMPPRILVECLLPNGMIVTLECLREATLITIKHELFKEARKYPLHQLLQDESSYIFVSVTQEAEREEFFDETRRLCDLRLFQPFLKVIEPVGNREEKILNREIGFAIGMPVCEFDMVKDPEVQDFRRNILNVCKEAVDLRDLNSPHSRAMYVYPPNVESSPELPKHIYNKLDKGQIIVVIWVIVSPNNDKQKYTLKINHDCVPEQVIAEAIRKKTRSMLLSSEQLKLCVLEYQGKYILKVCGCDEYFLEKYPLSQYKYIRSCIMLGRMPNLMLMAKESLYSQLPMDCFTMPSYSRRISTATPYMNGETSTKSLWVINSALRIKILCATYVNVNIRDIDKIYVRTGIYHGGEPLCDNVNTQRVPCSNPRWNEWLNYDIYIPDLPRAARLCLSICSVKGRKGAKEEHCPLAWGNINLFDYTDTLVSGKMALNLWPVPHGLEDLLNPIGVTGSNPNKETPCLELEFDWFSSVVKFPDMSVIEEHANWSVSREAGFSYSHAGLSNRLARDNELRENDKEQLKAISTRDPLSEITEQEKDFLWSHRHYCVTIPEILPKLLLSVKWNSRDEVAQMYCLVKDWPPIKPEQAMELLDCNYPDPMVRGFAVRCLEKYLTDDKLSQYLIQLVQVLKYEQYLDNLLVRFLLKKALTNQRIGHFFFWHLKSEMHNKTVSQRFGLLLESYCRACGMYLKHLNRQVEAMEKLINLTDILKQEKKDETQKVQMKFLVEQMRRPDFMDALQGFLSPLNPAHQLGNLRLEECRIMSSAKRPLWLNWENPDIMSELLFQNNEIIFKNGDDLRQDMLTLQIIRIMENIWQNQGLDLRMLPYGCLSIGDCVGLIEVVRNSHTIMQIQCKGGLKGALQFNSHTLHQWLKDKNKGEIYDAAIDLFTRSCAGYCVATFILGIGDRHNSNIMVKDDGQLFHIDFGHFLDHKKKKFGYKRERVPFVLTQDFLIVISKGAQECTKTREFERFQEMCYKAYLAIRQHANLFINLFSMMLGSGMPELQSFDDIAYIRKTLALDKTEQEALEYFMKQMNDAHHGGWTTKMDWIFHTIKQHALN
PI3Kα, sequence (P27986 whole entry partner): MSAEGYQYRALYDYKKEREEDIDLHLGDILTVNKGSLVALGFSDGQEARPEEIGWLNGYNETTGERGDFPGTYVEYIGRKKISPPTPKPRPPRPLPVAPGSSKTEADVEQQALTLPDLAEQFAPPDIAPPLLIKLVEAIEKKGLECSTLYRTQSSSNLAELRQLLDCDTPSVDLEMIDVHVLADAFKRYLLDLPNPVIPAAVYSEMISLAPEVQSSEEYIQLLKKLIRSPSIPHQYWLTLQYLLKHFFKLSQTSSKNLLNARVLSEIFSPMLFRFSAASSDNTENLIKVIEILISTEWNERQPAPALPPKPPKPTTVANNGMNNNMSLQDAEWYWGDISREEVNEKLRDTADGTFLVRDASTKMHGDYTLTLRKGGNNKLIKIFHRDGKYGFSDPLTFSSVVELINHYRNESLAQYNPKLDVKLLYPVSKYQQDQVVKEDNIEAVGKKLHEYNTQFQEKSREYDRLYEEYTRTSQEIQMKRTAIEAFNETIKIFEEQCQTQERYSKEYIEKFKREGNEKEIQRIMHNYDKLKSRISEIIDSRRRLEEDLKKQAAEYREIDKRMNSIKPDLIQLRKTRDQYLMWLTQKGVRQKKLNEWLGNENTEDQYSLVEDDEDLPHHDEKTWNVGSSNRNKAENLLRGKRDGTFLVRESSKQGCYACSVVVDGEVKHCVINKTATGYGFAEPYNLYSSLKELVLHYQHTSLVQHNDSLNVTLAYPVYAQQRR

Prostanoid EP4, sequence (P35408 whole entry): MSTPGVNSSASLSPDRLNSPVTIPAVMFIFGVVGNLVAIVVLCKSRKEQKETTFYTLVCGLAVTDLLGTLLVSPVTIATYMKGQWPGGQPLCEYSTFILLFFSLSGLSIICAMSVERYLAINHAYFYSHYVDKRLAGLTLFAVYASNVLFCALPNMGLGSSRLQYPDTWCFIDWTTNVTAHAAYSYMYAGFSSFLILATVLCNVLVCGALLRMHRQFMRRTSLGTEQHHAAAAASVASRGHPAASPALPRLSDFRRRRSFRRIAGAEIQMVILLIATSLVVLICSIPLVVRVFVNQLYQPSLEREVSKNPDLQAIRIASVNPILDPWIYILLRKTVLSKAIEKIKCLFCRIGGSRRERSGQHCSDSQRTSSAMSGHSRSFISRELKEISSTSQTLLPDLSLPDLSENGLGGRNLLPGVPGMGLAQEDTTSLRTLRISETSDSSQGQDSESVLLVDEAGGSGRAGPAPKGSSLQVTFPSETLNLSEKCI
Leukotriene, Cysteinyl CysLT1, sequence (Q9Y271 whole entry): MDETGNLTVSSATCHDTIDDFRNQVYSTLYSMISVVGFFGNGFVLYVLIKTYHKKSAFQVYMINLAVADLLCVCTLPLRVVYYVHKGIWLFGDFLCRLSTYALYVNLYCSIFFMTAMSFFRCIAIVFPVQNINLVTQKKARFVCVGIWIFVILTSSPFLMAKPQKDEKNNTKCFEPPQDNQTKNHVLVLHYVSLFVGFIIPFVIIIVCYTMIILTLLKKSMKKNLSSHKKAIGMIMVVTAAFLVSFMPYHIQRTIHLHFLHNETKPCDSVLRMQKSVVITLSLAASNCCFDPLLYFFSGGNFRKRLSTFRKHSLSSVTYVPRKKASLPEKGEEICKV

Consider `Nc1ccc(-c2ccc3ncc4c(=O)[nH]c(=O)n(-c5cccc(C(F)(F)F)c5)c4c3n2)cn1` [Compound 5, 9-(6-aminopyridin-3-yl)-1-(3-(trifluoromethyl)phenyl)pyrimido[5,4-c][1,5]naphthyridine-2,4(1H,3H)-dione], for which the inhibition at 10 µM on Prostanoid EP4 is 19%; in assay [1], -1%; in assay [2], 25%.
Take `O=c1[nH]c(=O)n(-c2cccc(C(F)(F)F)c2)c2c1cnc1ccc(-c3cnc4[nH]ccc4c3)nc12` [Compound 30, 9-(1H-pyrrolo[2,3-b]pyridin-5-yl)-1-(3-(trifluoromethyl)phenyl)pyrimido[5,4-c][1,5]naphthyridine-2,4(1H,3H)-dione]: the values for the IC50 on mTOR and at PI3Kα were 1.12 nM and 15 nM, respectively.
